Reference: publication PMC10141580, “Cyclic Dichalcogenides Extend the Reach of Bioreductive Prodrugs to Harness Thiol/Disulfide Oxidoreductases: Applications to seco-Duocarmycins Targeting the Thioredoxin System” (ACS Central Science, 2023)

Tests used:
mouse = experiment: Tolerability for repeated dose administration in vivo (summary); conditions: for remarks: repeated dose administration; for well-tolerated dose: weekly or twice-weekly administration
MEF TrxR1-ko cells = experiment: Resazurin cytotoxicity assay, MEF TrxR1 knockout, 72 h; conditions: MEF TrxR1-ko vs wt (fl/fl)
Description: A TrxR1 knockout (ko) in mouse embryonic fibroblast (MEF) cells is, however, accessible. We compared its prodrug sensitivity to that of its parental line[49] (wild-type, wt), on the basis that TrxR1-ko should leave most Trx1 in its oxidized state (only a fraction of it can be maintained in the reduced state by alternative reductants such as Grx2),[50] so prodrugs relying on the cytosolic thioredoxin system (Trx1/TrxR1) for most of their bioreductive activation in long-term assays will have lower potency in TrxR1-ko cells.
MEF cells (ko vs. wt) we r e treated with prodrugs of the CBI-TMI and CBI-AZI series for
72 h at concentrations from 10 pm t o 3 0 µM at 27 incremental single concentrations depending on expected
potencies of the constructs. Data from at least 3 individual experiments was combined (no error bars shown for
clarity) for each cell line.

Structure (SMILES) | remarks (mouse) | well-tolerated dose (mouse) [mg/kg] | fold change of potency wt → ko (MEF TrxR1-ko cells) [×]
COc1cc2cc(C(=O)N3CC(CCl)c4c3cc(OC(=O)N3CCN(C)C5CSSCC53)c3ccccc43)[nH]c2c(OC)c1OC (mixture of isomers) [Me-SS66C-CBI-TMI] | well tolerated | 3 | 4
COc1cc2cc(C(=O)N3CC(CCl)c4c3cc(OC(=O)N3CCN(C)C5CSSCC53)c3ccccc43)[nH]c2c(OC)c1OC (mixture of isomers) [Me-SS66T-CBI-TMI] | well tolerated | 3 | 2
COc1cc2cc(C(=O)N3C[C@@H](CCl)c4c3cc(OC(=O)N(CCC(=O)N3CCN(C)CC3)C3CCCCC3)c3ccccc43)[nH]c2c(OC)c1OC [P-CC60-CBI-TMI] | well tolerated | 3 | –
COc1cc2cc(C(=O)N3C[C@@H](CCl)c4c3cc(OC(=O)N(CCC(=O)N3CCN(C)CC3)[C@H]3CCSSC3)c3ccccc43)[nH]c2c(OC)c1OC [P-SS60-CBI-TMI] | well tolerated | 3 | –
COc1cc2cc(C(=O)N3C[C@@H](CCl)c4c3cc(OC(=O)N3CCN(C(=O)CCC(=O)N5CCN(C)CC5)[C@H]5CSSC[C@H]53)c3ccccc43)[nH]c2c(OC)c1OC [P-SS66C-CBI-TMI] | well tolerated | 3 | 3
